Laboratory results taken from patent US20040029938A1, “Medicaments” (priority 2000, published 2004).

System: inducible nitric oxide synthase (INOS)
Assay: LPS-induced INOS activity in J774 cells (DAF-2 fluorescence)
Type: cell-based, mouse
Settings: pre-treatment 6 hours before and 24 hours after LPS (1 μg/ml), sub-nanomolar-nanomolar concentrations, FIG. 1
Description: In this assay system, lipopolysaccharide (LPS) was used to induce the expression of INOS in the mouse macrophage cell line, J774. […] This reduction in INOS activity correlated with a reduction in LPS-induced INOS mRNA expression.
Specifically, LPS-induced INOS activity was measured using the following assay conditions. J774 cells were seeded at a density of […] per well, in a black, clear-bottomed, 96 well plate, 24hours prior to use. The cell culture and the drug dilutions were carried out in complete media, which consisted of DMEM (Dulbecco's modification of Eagle's medium) containing foetal calf serum (10%), glutamine (2 mM), penicillin (100 μ/ml) and streptomycin (100 μg/ml). The J774 cells were pre-treated with the PPAR delta activators A and B, or vehicle, for 6 hours prior to, and for 24 hours subsequent to the addition of LPS (typically, a concentration of 1 μg/ml of LPS was used). Twenty-four hours after the addition of LPS, INOS activity was measured by the following method. […] After incubation at 37° C. for 3 hours, fluorescence from each well was measured at an excitation wavelength of 485 nm, and an emission wavelength of 530 nm. […]
LPS to induce INOS activity, in the presence and absence of PPAR delta activators, was then calculated. […]

Compound	inhibition of LPS-induced INOS activity
Cc1cc(SCc2sc(-c3ccc(C(F)(F)F)cc3)nc2C)ccc1OCC(=O)O [Compound A, 2-{2-methyl-4-[({4-methyl-2-[4-(trifluoromethyl)phenyl]-1,3-thiazol-5-yl}methyl)sulfanyl]phenoxy}acetic acid]	marked inhibition
Cc1cc(SCc2sc(-c3ccc(C(F)(F)F)c(F)c3)nc2C)ccc1OCC(=O)O [Compound B, 2-{2-methyl-4-[({4-methyl-2-[3-fluoro-4-(trifluoromethyl)phenyl]-1,3-thiazol-5-yl}methyl)sulfanyl]phenoxy}acetic acid]	marked inhibition
